From patent US20170332627A1, “AGROCHEMICAL RESINATES FOR AGRICULTURAL APPLICATIONS” (priority 2014, published 2017) come the findings set out here.

Series [1] in a line: Soil test (potting soil/sand, tap water) for release profile. It counts as physicochemical. The text has this: To further explore behavior of the IER-AAI complex in conditions found in the soil, a soil test was developed to mimic in-vivo conditions by mixing potting soil with sand, based on the understanding that most soil in the field is not of the same quality as premium potting soil, but instead typically contains more clay or sand. The samples run through the soil test were WG01, WG02, WG05-WG10.
In this experiment, potting soil was mixed with sand in a 19:31 ratio. Then the desired amount of IER-AAI complex (the amount of resin that would allow the total AAI to be 25 mg) was mixed homogenously in with the soil. The Buchner funnel was fitted with filter paper and the filter paper was wet with a little bit of tap water. The Buchner funnel was then placed in an Erlenmeyer flask with a side arm fitted with a rubber adaptor. The side arm was hooked up to a vacuum and the vacuum turned on. Next, the sand/soil/IER-AAI mixture was poured into the Buchner funnel. 10 mL of tap water was poured evenly over the sand/soil/IER-AAI mixture and flooding was observed. Once the water drained into the Erlenmeyer flask, the Buchner funnel was removed and the water transferred into a glass vial. The Buchner funnel was replaced back on the Erlenmeyer flask, the vacuum turned back on, and another 10 mL of tap water was poured evenly over the sand/soil/IER-AAI mixture. This process was repeated until 10×10 mL fractions were collected. Each fraction was then analyzed for UV absorbance at 200-400 nm using a ThermoScientific model Evolution 201, diluting samples when necessary. Comparing the absorbance values against a calibration curve, the amount of AAI in each fraction was calculated.
The percent loading and release profile for each AAI was obtained based on the protocols described in Examples 14 and 15 respectively, except that the AAI content was held constant at 20 mg instead of 25 mg.

Series [2] in a line: Sand column test, release of chloramben with DI water then 2M NaOH. Format: physicochemical. Particulars: for release profile in sand column (FIG. 1): result in words. From the text:
To assess the extended release properties of our WDG and HSC formulations (prepared in accordance with Example 7) we employed a sand column method as described below, where the results of the sand column test can be extrapolated to represent in vivo soil conditions.
Sand column tests were run first with water and then with a 2M NaOH ionic solution. […] The rest of the sand column tests were then run with 2M NaOH; we selected the hydroxyl ion as a representative anion to illustrate the release of the AAI through ion exchange.
First, the sand to be used in the sand column was weighed out into a centrifuge tube. Then the sand was wetted with DI water until flowable and vortexed to mix. Next, the sand was introduced into a Lab-Crest Buret fitted with a Stopcock. DI water was then passed through the sand column to remove any sand that had stuck to the side of the buret. Excess water was drained, until the water level was just at the top of the sand. In a separate small centrifuge tube, the sand was mixed with the experimental sample, and this mixture was added to the top of the sand column. Chloramben control and samples formulated as WG01, WG02, and HSC01 (as described above) were tested.
For each Sample, the experiment was conducted as follows. […] 7×10 mL fractions were collected from the column in appropriately sized culture tubes at 10 mL fractions. The stopcock was closed as the water level reached the top of the sand. […] 7×10 mL fractions were collected in appropriately sized culture tubes. Each fraction was then analyzed for UV absorbance at 200-400 nm using a ThermoScientific model Evolution 201, diluting samples when necessary. Comparing the absorbance values against a calibration curve, the amount of AAI in each fraction was calculated.
The results of these experiments are shown in the graph in FIG. 1.
Fractions 1-7 were run with deionized water flushing through the column, while fractions 8-14 were run with 2 M NaOH flushing through the column. The arrow indicates where the changeover from DI water to NaOH occurred. […] Only when there was a counterion present for exchange (i.e. OH^− in the NaOH), did the chloramben in the test samples start to release more quickly.

Where [3] appears, read: benzoic acid, 25 mg total AAI, 10x10 mL tap water, FIG. 2.
[4] abbreviates: benzoic acid, 25 mg total AAI, 10x10 mL tap water, FIG. 3.
Where [5] appears, read: benzoic acid, 25 mg total AAI, HSC comparison, FIG. 5.
[6] abbreviates: chloramben, 25 mg total AAI, 10x10 mL tap water, FIG. 4.
Where [7] appears, read: control, no eluent named in head.
Where [8] appears, read: whole run, DI water then 2M NaOH, same value under both heads.
The mark [9] stands for this setting: dicamba, 20 mg total AAI, FIG. 6.
[10] abbreviates: gibberellic acid, 20 mg total AAI, FIG. 9.
The mark [11] stands for this setting: imidacloprid, 20 mg total AAI, FIG. 8.
[12] abbreviates: nicosulfuron, 20 mg total AAI, FIG. 7.

Regarding `O=C(O)c1ccccc1` [Benzoic Acid Control, Benzoic acid], in series [1] (setting [3]), the “Percent Released” value was 97% and the “Total AAI Released” value is given as 24 mg. In series [1] (setting [4]), the “Percent Release” value is given as 97% and the “Total AAI Released” value stood at 24 mg. Also, in series [1] (setting [5]), the “Percent Release” value was found to be 97% and the “Total AAI Released” value is on record as 24 mg.

Take `Nc1cc(Cl)cc(C(=O)O)c1Cl` [Chloramben Control, Chloramben]: in series [1] (setting [6]), the “Percent Release” value is 71% and the “Total AAI Released” value is 18 mg. In series [2] (setting [7]), the “% chloramben released in first two fractions” value is 44% and the “Total mg chloramben released” value is 20.92 mg. The “release profile in sand column (FIG. 1)” value in series [2] is “released more quickly”. Besides, in series [2] (listed as control chloramben powder), the “release profile in sand column (FIG. 1)” value is listed as “released very quickly”. In series [2] (setting [8]), the “% chloramben remaining” value amounted to 30% and the “% total chloramben released” value is listed as 70%.

On to `COc1c(Cl)ccc(Cl)c1C(=O)O` [Dicamba Control, Dicamba], for which, in series [1] (setting [9]), the “Percent Release” value is recorded as 100% and the “Total AAI Released” value worked out at 20 mg.

With `C=C1C[C@]23C[C@@]1(O)CC[C@H]2[C@@]12C=C[C@H](O)[C@@](C)(C(=O)O1)[C@H]2[C@@H]3C(=O)O` [GA Control, Gibberellic Acid], in series [1] (setting [10]), the “Percent Release” value is listed as 99% and the “Total AAI Released” value was 20 mg.

For `O=[N+]([O-])NC1=NCCN1Cc1ccc(Cl)nc1` [ICD Control, Imidacloprid], in series [1] (setting [11]), the “Percent Release” value amounted to 98% and the “Total AAI Released” value is recorded as 20 mg.

Take `COc1cc(OC)nc(NC(=O)NS(=O)(=O)c2ncccc2C(=O)N(C)C)n1` [NSN Control, Nicosulfuron]: in series [1] (setting [12]), the “Percent Release” value amounted to 52% and the “Total AAI Released” value is 10 mg.
